Data from US20230190760A1, “ADVANTAGEOUS THERAPIES FOR DISORDERS MEDIATED BY IKAROS OR AIOLOS” (C4 Therapeutics, Inc., priority 2020, published 2023).

Key:
IKZF1 = IKZF1 (Homo sapiens, UniProt Q13422+Q96SW2)
Description: Endogenous expression of IKZF1 in NCIH929 cells was determined by addition of N-terminal HiBiT tag to the NCIH929 cell line using CRISPR-Cas9. Briefly, test compound was added to 384-well plates at a top concentration of 1 μM with 10 points, half log titration in duplicates. NCIH929 cells expressing HiBiT-tagged IKZF1 were seeded into the 384-well plates in RPMI medium containing 10% FBS and 0.05 mM 2-mercaptoethanol at a cell density of 15000 cells per well. Cells treated in the absence of the test compound were the negative control and wells containing media only were the positive control. Following compound treatment, cells were incubated at 37° C. with 5% CO2 for 1.5 hr. HiBiT signal was determined using Nano-Glo™ HiBiT Lytic Assay System (Promega, N3050) and luminescence was acquired on EnVision™ Multilabel Reader (PerkinElmer, Santa Clara, Calif., USA). % IKZF1 remaining was determined by normalizing the signal with positive and negative controls on the same microtiter plate. […] Curve fit and IC50 determination was performed by 4 parametric regression analysis.
NCIH929 cells expressing HiBiT-tagged IKZF1 were seeded into the 384-well plates in RPMI medium containing 10% FBS and 0.05 mM 2-mercaptoethanol at a cell density of 15000 cells per well. Cells treated in the absence of the test compound were the negative control and wells containing media only were the positive control. Following compound treatment, cells were incubated at 37° C. with 5% CO2 for 1 or 2 hr. HiBiT signal was determined using Nano-Glo™ HiBiT Lytic Assay System (Promega, N3050) and luminescence was acquired on EnVision™ Multilabel Reader (PerkinElmer, Santa Clara, Calif., USA). % IKZF1 remaining was determined by normalizing the signal with positive and negative controls on the same microtiter plate. Curve fit and IC50 determination was performed by 4 parametric regression analysis.

[1] = system: NCI-H929 multiple myeloma tumors; assay: NCI-H929 multiple myeloma xenograft, NOD SCID mice (Example 13); type: in vivo
Description: Compound 1 efficacy in two multiple myeloma cell lines (NC-H929) and (RPMI-8226) was evaluated at four different doses: 3 μg/kg, 10 μg/kg, 30 μg/kg, and 100 μg/kg. Compound 1 was administered QD (every day) orally (PO). […]
For the NCI-H929 cells, the xenograft study was conducted in female NOD SCID mice bearing NCI-H929 multiple myeloma tumors.
Statistical analysis was performed using two-way analysis of variance (ANOVA). Data are expressed as MTV±SEM.

HepG2 liver cancer cells = assay: Viability assay in HepG2 liver cancer cells; type: cell-based; details: concentrations up to 3.3 μM
Farage = assay: Anti-proliferative activity, 96 hours
[2] = system: Interferon-response proteins in DL-40 ALCL xenograft tumors; assay: Global proteomics and gene ontology of DL-40 ALCL xenograft tumors, 48 hours after dose; type: in vivo, mice; details: 0.1 nM for 48 hr
Description: […] Gene ontology analysis was done by using BINGO, a Java-based tool that is implemented as a plugin for Cytoscape. Default settings were used to assess the overexpression of GO categories and the interactions among altered proteins were determined using the STRING database, with a cutoff score of 700.

IKZF1, sequence (Q13422 whole entry): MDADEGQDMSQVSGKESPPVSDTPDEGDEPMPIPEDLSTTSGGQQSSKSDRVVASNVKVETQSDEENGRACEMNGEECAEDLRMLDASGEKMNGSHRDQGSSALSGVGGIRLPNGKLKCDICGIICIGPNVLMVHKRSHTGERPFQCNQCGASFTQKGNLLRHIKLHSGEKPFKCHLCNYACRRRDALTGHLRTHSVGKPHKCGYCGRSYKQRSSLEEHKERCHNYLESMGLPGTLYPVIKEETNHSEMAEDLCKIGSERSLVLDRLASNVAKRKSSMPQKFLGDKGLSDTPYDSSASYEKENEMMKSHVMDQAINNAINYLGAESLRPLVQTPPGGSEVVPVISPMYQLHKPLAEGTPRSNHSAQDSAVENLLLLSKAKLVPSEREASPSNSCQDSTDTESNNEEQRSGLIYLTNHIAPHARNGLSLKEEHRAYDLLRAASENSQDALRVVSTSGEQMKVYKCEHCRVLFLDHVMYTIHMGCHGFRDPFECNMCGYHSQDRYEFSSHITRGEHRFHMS
IKZF1, sequence (Q96SW2 whole entry): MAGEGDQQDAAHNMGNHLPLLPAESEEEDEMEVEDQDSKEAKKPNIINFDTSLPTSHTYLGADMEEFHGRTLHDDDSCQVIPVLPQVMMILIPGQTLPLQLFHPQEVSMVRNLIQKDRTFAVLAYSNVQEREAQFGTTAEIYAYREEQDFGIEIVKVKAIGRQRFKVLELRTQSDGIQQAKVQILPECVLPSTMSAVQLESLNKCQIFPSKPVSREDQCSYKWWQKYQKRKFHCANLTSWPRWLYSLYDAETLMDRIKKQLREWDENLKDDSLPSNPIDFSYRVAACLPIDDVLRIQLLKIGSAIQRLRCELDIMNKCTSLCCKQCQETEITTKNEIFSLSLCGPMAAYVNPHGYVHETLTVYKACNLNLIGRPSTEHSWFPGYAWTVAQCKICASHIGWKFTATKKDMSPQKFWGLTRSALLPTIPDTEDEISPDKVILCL
IKZF1, sequence (Q16531 2-1140 partner limits assumed): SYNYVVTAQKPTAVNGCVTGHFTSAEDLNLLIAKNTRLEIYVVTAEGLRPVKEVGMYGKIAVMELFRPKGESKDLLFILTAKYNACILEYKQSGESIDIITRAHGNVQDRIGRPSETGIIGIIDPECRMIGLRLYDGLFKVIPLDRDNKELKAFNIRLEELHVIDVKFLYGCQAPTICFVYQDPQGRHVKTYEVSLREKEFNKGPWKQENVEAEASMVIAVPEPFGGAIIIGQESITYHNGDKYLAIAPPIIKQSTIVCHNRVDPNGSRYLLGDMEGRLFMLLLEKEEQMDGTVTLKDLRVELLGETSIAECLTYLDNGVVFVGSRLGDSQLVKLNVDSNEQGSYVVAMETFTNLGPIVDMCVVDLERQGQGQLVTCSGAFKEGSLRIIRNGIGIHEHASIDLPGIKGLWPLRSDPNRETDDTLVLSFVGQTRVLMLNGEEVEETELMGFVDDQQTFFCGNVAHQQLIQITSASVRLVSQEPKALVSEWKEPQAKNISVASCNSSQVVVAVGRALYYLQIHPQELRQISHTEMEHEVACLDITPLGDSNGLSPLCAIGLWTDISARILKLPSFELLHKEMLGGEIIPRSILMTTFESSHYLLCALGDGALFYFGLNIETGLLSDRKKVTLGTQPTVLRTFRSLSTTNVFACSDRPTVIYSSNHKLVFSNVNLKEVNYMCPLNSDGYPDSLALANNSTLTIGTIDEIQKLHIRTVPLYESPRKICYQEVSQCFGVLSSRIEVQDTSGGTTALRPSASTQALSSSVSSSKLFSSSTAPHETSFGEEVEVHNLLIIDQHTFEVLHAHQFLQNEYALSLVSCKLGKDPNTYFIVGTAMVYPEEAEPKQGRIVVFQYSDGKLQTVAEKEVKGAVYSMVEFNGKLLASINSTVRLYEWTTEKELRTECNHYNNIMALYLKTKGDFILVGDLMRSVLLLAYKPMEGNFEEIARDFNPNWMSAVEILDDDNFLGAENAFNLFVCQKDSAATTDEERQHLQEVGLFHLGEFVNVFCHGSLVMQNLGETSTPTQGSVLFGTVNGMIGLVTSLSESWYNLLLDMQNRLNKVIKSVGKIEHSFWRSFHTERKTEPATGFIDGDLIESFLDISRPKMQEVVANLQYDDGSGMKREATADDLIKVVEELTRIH

## O=C1CC[C@H](N2C(=O)c3cccc4c(Cc5ccc(CN6CCOCC6)cc5)ccc2c34)C(=O)N1 (single isomer, unassigned) [Compound 1]
IKZF1; 2 hour treatment
  DC50: 0.021 nM
IKZF1; NCI-H929, read-out: Mean Emax (%) ± SD, IKZF1 Degradation
  Emax: 22.4 ± 3.1%
IKZF1; NCI-H929, read-out: maximal degradation of IKZF1
  Dmax: > 80%
IKZF1; after 1 hour treatment
  IKZF1 degradation: 50%
IKZF1; at 2 hr
  potency greater than pomalidomide: > 2000 fold
IKZF1; multiple myeloma cells, within 1.5 hours at 0.3 nM
  degradation of steady state IKZF1: > 75%
[1]; 3 μg/kg PO QD
  Statistical Significance Compared to Vehicle: 0.04
[1]; 10 μg/kg PO QD
  Statistical Significance Compared to Vehicle: 0.0002
[1]; 30 μg/kg PO QD
  Statistical Significance Compared to Vehicle: 0.0004
[1]; 100 μg/kg PO QD
  Statistical Significance Compared to Vehicle: 0.0004
[1]; 3, 10, 30 and 100 μg/kg, NCI-H929 and RPMI-8226
  tumor volume versus pomalidomide 3000 μg/kg: reduced tumor volume more than pomalidomide
HepG2 liver cancer cells
  effect on viability: no significant effect
Farage
  IC50: 56.3 nM
[2]
  Log2 vs Vehicle, AAAS: 0.043
  Log2 vs Vehicle, ABCE1: −0.112
  Log2 vs Vehicle, ADAR: 0.065
  Log2 vs Vehicle, ARIHI: 0.023
  Log2 vs Vehicle, B2M: −0.048
  Log2 vs Vehicle, BST2: 0.241
  Log2 vs Vehicle, CAMK2A: −0.697
  Log2 vs Vehicle, CAMK2B: 0.054
  Log2 vs Vehicle, CAMK2D: 0.038
  Log2 vs Vehicle, CAMK2G: −0.054
  Log2 vs Vehicle, CD44: −0.377
  Log2 vs Vehicle, CIITA: −0.076
  Log2 vs Vehicle, DDX58: 0.455
  Log2 vs Vehicle, EIF2AK2: 0.527
  Log2 vs Vehicle, EIF4A1: 0.13
  Log2 vs Vehicle, EIF4A2: 0.08
  Log2 vs Vehicle, EIF4A3: 0.079
  Log2 vs Vehicle, EIF4E2: 0.179
  Log2 vs Vehicle, EIF4E3: 0.208
  Log2 vs Vehicle, EIF4G1: −0.048
  Log2 vs Vehicle, EIF4G2: −0.071
  Log2 vs Vehicle, EIF4G3: −0.108
  Log2 vs Vehicle, FLNA: 1.179
  Log2 vs Vehicle, FLNB: 0.234
  Log2 vs Vehicle, GBP1: 0.343
  Log2 vs Vehicle, GBP2: −0.269
  Log2 vs Vehicle, GBP4: 0.388
  Log2 vs Vehicle, HERC5: −0.149
  Log2 vs Vehicle, HLA-A: −0.128
  Log2 vs Vehicle, HLA-B: 0.066
  Log2 vs Vehicle, HLA-C: −0.065
  Log2 vs Vehicle, HLA-DPA1: −0.139
  Log2 vs Vehicle, HLA-DPB1: −0.023
  Log2 vs Vehicle, HLA-DQA2: −0.144
  Log2 vs Vehicle, HLA-DQB1: 0.055
  Log2 vs Vehicle, HLA-DRA: −0.133
  Log2 vs Vehicle, HLA-DRB1: −0.1
  Log2 vs Vehicle, HLA-E: −0.167
  Log2 vs Vehicle, HLA-F: 0.408
  Log2 vs Vehicle, ICAM1: 0.31
  Log2 vs Vehicle, IFI30: 0.217
  Log2 vs Vehicle, IFI35: 0.153
  Log2 vs Vehicle, IFIT2: −0.186
  Log2 vs Vehicle, IFIT3: 0.736
  Log2 vs Vehicle, IR.F9: 0.535
  Log2 vs Vehicle, IRF1: 0.147
  Log2 vs Vehicle, IRF2: −0.265
  Log2 vs Vehicle, IRF3: 0.114
  Log2 vs Vehicle, IRF4: −0.452
  Log2 vs Vehicle, IRF5: 0.192
  Log2 vs Vehicle, IRF7: 0.264
  Log2 vs Vehicle, ISG15: 0.241
  Log2 vs Vehicle, ISG20: −0.168
  Log2 vs Vehicle, J A KI: 0.036
  Log2 vs Vehicle, KPNA1: 0.045
  Log2 vs Vehicle, KPNA2: 0.058
